In patent US20250206773A1, “FORMS AND COMPOSITIONS OF SODIUM CHENODEOXYCHOLATE” (Syntis Bio, Inc., priority 2022, published 2025):
Like-named read-outs stand apart in the source and are kept apart here.

Legend:
[1] = assay type: physicochemical; conditions: pH 7.4
Protocol: Solubility curve measurements of NaCDC Form A and Form B were performed using a Crystal16 automatic crystallizer (Technobis Crystallization Systems), having an array of 16 microreactors equipped with turbidimeters for the determination of clear and cloud points. Samples of four different concentrations for each crystalline form were prepared by weighing accurately different amounts of each sample and adding 1000 μL of phosphate buffer (pH 7.4) to each vial. The suspensions thus obtained were stirred using a magnetic stirrer and heated from 0° C. to 90° C. at 0.5° C./min. The clear point for each sample was determined and plotted to obtain a crystallization curve (FIG. 13).

[2] = assay type: physicochemical; conditions: RT
Protocol: HPLC analysis was carried out on an Agilent 1260 Infinity chromatograph, using a Hichrom C18 column 100×4.6 mm, 3.5 m, at 40° C. Method details were as follows: [table] Photostability of NaCDC Form B was evaluated by exposing it in solid state and in MeOH solutions to UV 254 nm light for 48 hours in clear, amber, and aluminum foil wrapped vials. The solutions were prepared by weighing around 10 mg NaCDC Form B and mixing it with 500 μL MeOH. The solids and solutions were sampled after 48 hours and analyzed by HPLC, in order to assess degradation. In parallel, XRPD analysis was performed on the recovered solids.

[3] = Exposure to moist air (RH 95%, room temperature), XRPD before/after; assay type: physicochemical
Protocol: FIG. 4 is a series of XRPD patterns, showing NaCDC Form A before (thick line) and after (thin line) 15 hours of exposure to RH 95% at room temperature. FIG. 8 is a series of XRPD patterns, showing NaCDC Form B before (thick line) and after (thin line) 15 hours of exposure to RH 95% at room temperature.

[4] = assay type: physicochemical
Protocol: In-process stability of NaCDC Form B was evaluated under two conditions at reflux, as described in Table 1 below.

[5] = n-BuOH/water (6/1), azeotropic reflux for 24 h
[6] = n-BuOH/water (6/1), azeotropic reflux

solubility compared to NaCDC Form A (solubility curve) [1]: slightly higher solubility | HPLC (%) at 212 nm, after 48h ([2]; ST01: UV 254 nm, solid, clear vial): 94.4% | HPLC (%) at 212 nm, after 48h ([2]; ST02: UV 254 nm, solid, amber vial): 95.0% | HPLC (%) at 212 nm, after 48h ([2]; ST03: UV 254 nm, solid, control - dark): 95.4% | HPLC (%) at 212 nm, after 48h ([2]; ST04: UV 254 nm, MeOH solution, clear vial): 91.4% | HPLC (%) at 212 nm, after 48h ([2]; ST05: UV 254 nm, MeOH solution, amber vial): 91.0% | HPLC (%) at 212 nm, after 48h ([2]; ST06: UV 254 nm, MeOH solution, control - dark): 94.2% | effect of exposure to moist air (XRPD) ([3]; 15-20 hours at 95% humidity): eventual amorphization | loss of crystallinity on moist air exposure compared with Form A ([3]; 95% humidity): markedly slower | HPLC Purity % CDC (t24) ([4]; n-BuOH, reflux for 24 h): 99.9% | HPLC Purity % Cholic acid (t24) ([4]; n-BuOH, reflux for 24 h): 0.05% | HPLC Purity % CDC (t0) ([4]; n-BuOH, reflux): 99.9% | HPLC Purity % Cholic acid (t0) ([4]; n-BuOH, reflux): 0.05% | HPLC Purity % CDC (t24) [4, 5]: 99.92% | HPLC Purity % Cholic acid (t24) [4, 5]: 0.05% | HPLC Purity % CDC (t0) [4, 6]: 99.92% | HPLC Purity % Cholic acid (t0) [4, 6]: 0.05%
SMILES: C[C@H](CCC(=O)[O-])[C@H]1CC[C@H]2[C@@H]3[C@H](O)C[C@@H]4C[C@H](O)CC[C@]4(C)[C@H]3CC[C@]12C.[Na+] [Form B, sodium chenodeoxycholate]
